In patent US10653670B2, “Use of indole compounds for fat reduction and skin and soft tissue tightening” (Alevere Medical Corporation, priority 2013, dated 2020):
“Also recorded” adds a separate entry of the source.

Assays:
[1] = system: adipocytes over nerve cells, dermal cells, muscle cells, and endothelial cells; assay: LIVE/DEAD assay, tissue preference (adipocytes versus other cell types); type: cell-based, human; settings: for tissue specificity / tissue preference: Example 2, FIGS. 5-8 and table, 2 and 5 hours in FIGS. 6-8
adipocytes [2] = assay: Histology of injected immediate ex-vivo abdominoplasty tissue; type: cell-based, human
Protocol: As the indole group has not been previously used for intralesional fat reduction, a method of obtaining histologic specimens had to be modified.
The tissue model described herein, therefore, was immediate ex-vivo abdominoplasty tissue that had been permitted for use by the surgical patient. Segments of abdominal skin and subcutaneous fat were injected with identified test compounds, plus a negative saline control and three positive controls: 1% deoxycholate, the commercial preparation of Aqualyx®, and the Network Lipolysis PC/DC formula.
Because there was no host; inflammatory changes would not be expected. This study was only performed to assess the immediacy of adipocyte changes, and to determine the method of action of each compound.

[3] = system: fat pad (human fat graft); assay: Nude mouse study, injection into engrafted human fat pad; type: in vivo
Protocol: This example reports exemplary compounds reported in Example 1. A mouse study was performed to test compounds of the embodiments. Eight test compounds were injected. In addition to normal saline and compound diluent (DMSO plus excipients) (negative controls), positive controls included 1% sodium deoxycholate (DC, MasterPharm, Richmond Hill, N.Y.), phosphatidylcholine 25 mg/ml plus deoxycholate 12 mg/ml (PC/DC, PC25/DC 12, MasterPharm, Richmond Hill, N.Y.), and Aqualyx®, a sodium deoxycholate in a lactose carrier (Marllor International, Italy).
Seventy nude mice were chosen for a study of safety and efficacy of injectable lipolytic compounds. Human fat was harvested one hour prior to the injection procedure. 0.5 cc of fat was loaded into micro syringes. Engraftment took place under general anesthesia. Four weeks later, the fat pad size was measured and compounds injected precisely using a 6 mm meso needle in the center and 0.5 cm cephalad and caudad to the midpoint. Mice were sacrificed at one day, one week, two weeks and 4 weeks. […]
Each fat pad was measured and weighed on the analytical balance at the time of sacrifice. […]
Size reduction after compound injection was measured against the measurement taken just previous to injection of compounds. […] Compound dose was calculated based on the average weight of each mouse and was based on the maximum safe dose of PC/DC. […]

[4] = recent reports following clinical trials; cited from earlier work
adipocytes [5] = assay: LIVE/DEAD calcein/ethidium bromide assay, adipocyte kill rate; type: cell-based, human; settings: for adipocyte kill rate / aggressiveness: Example 2, FIGS. 5-8 and table; for Adipocyte, averaged ethidium numbers: kill rate (ethidium), all tissue types on the same plate
Protocol: (§1) The time and concentration dependent effects of drug substance on both cell viability and toxicity were evaluated using a two-color fluorescence assay that measures plasma membrane integrity and intracellular enzyme activity. Live cells are determined by the strong fluorescence of calcein AM upon enzymatic conversion. […] The ratio of ethidium to calcein fluorescence is an excellent measure of the relative amount of live and dead cells.
(§2) Initial screening was performed using a variety of cell viability and cytotoxicity assays, including Presto Blue® (Invitrogen, Grand Island, N.Y.), Alamar Blue® (Invitrogen, Grand Island, N.Y.), Cyto-Tox One® (Promega, Madison, Wis.), and Cell Titer Glo® (Promega, Madison, Wis.). […] An MTT terazolium assay was performed, as well as LDH and ATP based assays. […] The LIVE/DEAD® for mammalian cells assay was used. LIVE/DEAD® for mammalian cells assay is a calcein (live read)/ethidium bromide (dead) multiplex assay.
(§3) A sample of DMSO/PBS was a negative control. A sample of Aqualyx® was a positive control. In the table, 24M is phosphatidylcholine 25 mg/ml plus deoxycholate 12 mg/and 25N is C 50/DC24; these were positive controls. The numbers in the table refer to averaged ethidium numbers. The percentages represent the relative kill rate for each cell type when rated against the adipocyte kill rate for that compound. All tissue types were tested on the same plate against adipocytes in order to standardize results.
(§4) Over seventy compounds of the embodiments were tested for adipocytolysis, then for tissue preference. A consistent assay with multiplex information was a calcein/ethidium bromide assay that assesses cell viability and cell death simultaneously. Cell viability was checked using the Countess device. All plates were inoculated with 100 microliters of the appropriate cell types. A 6 well repeat was used to verify results. Cell types used included cultured human adult derived adipocytes, dermal fibroblasts, skeletal muscle cells, and endothelial cells (Cell Applications, Inc., San Diego, Calif.). Human peripheral nerve cells (Innoprot, Spain) were also used.
(§5) Compounds were formulated using a DMSO/PBS excipient. A 10 mg/ml concentration was used. One hundred microliters of test compound was inserted into 6 wells of 5 cell types, placed in adjacent rows. The plates were incubated for 4 hours. Indicator was added to each well, and plates were read at 45 minutes using a fluorescence spectrophotometer (Molecular Devices, Sunnyvale, Calif.).

dermal fibroblasts = type: cell-based; settings: for Dermis, averaged ethidium numbers: kill rate (ethidium), same plate as adipocytes; for Dermis, relative kill rate rated against the adipocyte kill rate: percentage in brackets
Protocol: as §1, §2, §3, §4, §5

nerve cells = type: cell-based; settings: for Nerve, averaged ethidium numbers: kill rate (ethidium), same plate as adipocytes; for Nerve, relative kill rate rated against the adipocyte kill rate: percentage in brackets
Protocol: as §1, §2, §3, §4, §5

skeletal muscle cells = assay: LIVE/DEAD calcein/ethidium bromide assay, muscle cell kill rate; type: cell-based, human; settings: for Muscle, averaged ethidium numbers: kill rate (ethidium), same plate as adipocytes; for Muscle, relative kill rate rated against the adipocyte kill rate: percentage in brackets
Protocol: as §1, §2, §3, §4, §5

endothelial cells = assay: LIVE/DEAD calcein/ethidium bromide assay, endothelial cell kill rate; type: cell-based, human; settings: for Endothelial, averaged ethidium numbers: kill rate (ethidium), same plate as adipocytes; for Endothelial, relative kill rate rated against the adipocyte kill rate: percentage in brackets
Protocol: as §1, §2, §3, §4, §5

| SMILES | tissue specificity / tissue preference [1] | histology finding / mechanism of action (adipocytes [2]; at 4 hours) | adipocyte kill rate / aggressiveness (adipocytes [5]) | Adipocyte, averaged ethidium numbers (adipocytes [5]) | Dermis, averaged ethidium numbers (dermal fibroblasts) | Dermis, relative kill rate rated against the adipocyte kill rate (dermal fibroblasts) [%] | Nerve, averaged ethidium numbers (nerve cells) | Nerve, relative kill rate rated against the adipocyte kill rate (nerve cells) [%] | Muscle, averaged ethidium numbers (skeletal muscle cells) | Muscle, relative kill rate rated against the adipocyte kill rate (skeletal muscle cells) [%] | Endothelial, averaged ethidium numbers (endothelial cells) | Endothelial, relative kill rate rated against the adipocyte kill rate (endothelial cells) [%] | histology finding / mechanism of action (adipocytes [2]; at 12 hours) | also measured |
| --- | --- | --- | --- | --- | --- | --- | --- | --- | --- | --- | --- | --- | --- | --- |
| C[C@H](CCC(=O)[O-])[C@H]1CC[C@H]2[C@@H]3CC[C@@H]4C[C@H](O)CC[C@]4(C)[C@H]3C[C@H](O)[C@]12C.[Na+] [1% deoxycholate, sodium deoxycholate] | indiscriminate | Cell wall lysis |  |  |  |  |  |  |  |  |  |  |  | gross effect on fat pad graft ([3]; four weeks after injection): Visible and measurable fat reduction; gross effect on fat pad graft ([3]; one day after injection): Immediate necrosis; instances of facial nerve palsy [4]: two; numbness with paresthesias, patients treated [4]: up to 40% |
| O=C(O)c1cc2ccccc2[nH]1 [Compound 29, 1H-indole-2-carboxylic acid] | most strongly tissue preferential; also recorded: strongly adipocyte preferential |  | less aggressive; also recorded: equivalent to that of Compounds D and E | 83 | 9 | 11 | 15 | 18 | 14 | 17 | 8.5 | 10 | primarily an apoptotic mechanism |  |
| c1ccc2[nH]ccc2c1 [Compound 33, 1H-indole] | moderate tissue specificity | pyroptotic activity | fairly low adipocyte kill rate | 32 | 17 | 53 | 17 | 53 | 18 | 56 | 18 | 56 |  | ethidium results for dermis, muscle and endothelial cells compared with adipocytes ([1]; 4 time points over 24 hours): less than half toxic; tissue preference ([1]; Example 5, FIG. 12, 10 mg/ml, 4 hours incubation): about 50% |
| Brc1ccc2[nH]ccc2c1 [Compound 38, 5-bromo-1H-indole] | moderate preference | primarily cytolysis | aggressive adipocyte killer | 558 | 148 | 27 | 551 | 99 | 362 | 65 | 289 | 50 |  | toxicity to dermis / dermal fibroblasts (dermal fibroblasts; Example 2, FIGS. 6-8): not nearly as toxic; toxicity to nerve cells (nerve cells; Example 2, FIGS. 6-8): toxic to nerve cells |
| O=C(O)Cc1c[nH]c2ccc(Br)cc12 [Compound 41, 2-(5-bromo-1H-indol-3-yl) acetic acid] | most strongly tissue preferential; also recorded: high tissue preference index |  | moderate; also recorded: strong adipocytolytic capability | 149 | 27 | 18 | 32 | 20 | 40 | 27 | 44 | 30 | Pyroptotic mechanism |  |
